For 23 compounds, DC50 and Dmax results are on record in US20240327381A1, “Compounds and Compositions for Selective Degradation of Engineered Proteins” (Celgene Corporation, priority 2023, published 2024).

One test addresses T1, Helios (Homo sapiens, UniProt Q9UKS7).
T1 construct: endogenous in cells; host or cells: Jurkat cells, CRISPR/Cas9 knock-in of HiBit at the IKZF2 locus
The experiment in a line: Helios degradation in Jurkat/Helios/HiBit cells (Nano-Glo luminescence). It counts as cell-based. The following applies: 18 hr, read-out: Helios Jurkat Hibit IC50. The gist of the method: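 Jurkat cells carrying CRISPR-knocked-in C-terminal HiBit-tagged endogenous IKZF2 were treated with compound in DMEM/10% FCS (10,000 cells/well) for 18 h at 37 °C. HiBit signal was read by Nano-Glo luminescence after 30 min at RT. EC50 for degradation came from a four-parameter logistic fit, with Ymax as % protein degraded.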

Test [1] addresses T2, IKZF1 ZNF2_ZNF3 Q1F degron-tagged CD19 CAR (Homo sapiens, UniProt Q13422, Q146F).
T2 construct: ZNF2_ZNF3 Q1F degron (GERPFFCNQCGASFTQKGNLLRHIKLHSGEKPFKCHLCNYACRRRDALTGHLRTHS); fused on or other part: anti-CD19 scFv, CD28 transmembrane domain, 4-1BB costimulatory domain, CD3 zeta signaling domain (the CAR that carries the degron), and Nluc
The experiment in a line: Degradation of Q1F degron-tagged CD19 CAR in Jurkat cells (flow cytometry of CAR levels). The following applies: for DC50: Jurkat cells expressing CD19 CAR tagged with IKZF1 ZNF2_ZNF3 Q1F, 18 hours at 37° C., CAR levels normalized to untreated cells, read-out: Q1F Jurkat IC50; for Dmax: Ymax is the % protein degraded, Jurkat cells expressing Q1F degron-tagged CD19 CAR, 18 hours, read-out: Q1F Jurkat-YMax. It counts as cell-based. The method in brief:
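Jurkat cells were lentivirally transduced with an anti-CD19 scFv/CD28 TM/4-1BB/CD3ζ CAR tagged with an IKZF1 ZNF2_ZNF3 Q1F degron–Nluc, then treated with compound titrations for 18 h at 37 °C. CAR surface levels were stained (20 min, 4 °C), read by flow cytometry and normalised to untreated cells. EC50 came from a four-parameter logistic fit; Ymin is the minimum % CAR remaining.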
A general note: A flow cytometer gives signals particle by particle.

T1 sequence (Q9UKS7 whole entry): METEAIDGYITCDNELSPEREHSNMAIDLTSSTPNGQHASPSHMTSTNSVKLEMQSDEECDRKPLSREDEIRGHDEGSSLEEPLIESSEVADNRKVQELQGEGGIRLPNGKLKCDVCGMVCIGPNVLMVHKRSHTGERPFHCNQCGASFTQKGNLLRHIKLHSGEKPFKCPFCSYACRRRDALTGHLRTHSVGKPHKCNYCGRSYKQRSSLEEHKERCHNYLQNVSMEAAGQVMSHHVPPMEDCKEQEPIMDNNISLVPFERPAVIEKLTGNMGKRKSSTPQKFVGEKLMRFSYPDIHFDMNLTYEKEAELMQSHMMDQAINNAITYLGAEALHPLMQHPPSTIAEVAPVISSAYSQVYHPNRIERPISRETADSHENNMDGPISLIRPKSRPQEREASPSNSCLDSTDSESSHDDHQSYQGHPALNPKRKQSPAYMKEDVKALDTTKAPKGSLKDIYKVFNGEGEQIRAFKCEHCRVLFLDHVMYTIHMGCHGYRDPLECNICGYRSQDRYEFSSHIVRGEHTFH
T1 sequence (Q96SW2 whole entry, further chain): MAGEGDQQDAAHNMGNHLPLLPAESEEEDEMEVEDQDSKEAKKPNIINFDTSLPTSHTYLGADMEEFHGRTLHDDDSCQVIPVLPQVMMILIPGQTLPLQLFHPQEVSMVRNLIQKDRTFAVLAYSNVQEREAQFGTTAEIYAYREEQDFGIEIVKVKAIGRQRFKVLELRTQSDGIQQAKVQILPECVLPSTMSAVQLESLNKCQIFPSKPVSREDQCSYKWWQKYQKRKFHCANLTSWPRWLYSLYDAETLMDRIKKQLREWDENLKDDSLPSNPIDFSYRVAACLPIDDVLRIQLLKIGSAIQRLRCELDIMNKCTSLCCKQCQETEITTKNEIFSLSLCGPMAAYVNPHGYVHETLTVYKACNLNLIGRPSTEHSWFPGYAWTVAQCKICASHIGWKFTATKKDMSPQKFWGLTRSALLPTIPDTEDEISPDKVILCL
T1 sequence (Q16531 whole entry partner): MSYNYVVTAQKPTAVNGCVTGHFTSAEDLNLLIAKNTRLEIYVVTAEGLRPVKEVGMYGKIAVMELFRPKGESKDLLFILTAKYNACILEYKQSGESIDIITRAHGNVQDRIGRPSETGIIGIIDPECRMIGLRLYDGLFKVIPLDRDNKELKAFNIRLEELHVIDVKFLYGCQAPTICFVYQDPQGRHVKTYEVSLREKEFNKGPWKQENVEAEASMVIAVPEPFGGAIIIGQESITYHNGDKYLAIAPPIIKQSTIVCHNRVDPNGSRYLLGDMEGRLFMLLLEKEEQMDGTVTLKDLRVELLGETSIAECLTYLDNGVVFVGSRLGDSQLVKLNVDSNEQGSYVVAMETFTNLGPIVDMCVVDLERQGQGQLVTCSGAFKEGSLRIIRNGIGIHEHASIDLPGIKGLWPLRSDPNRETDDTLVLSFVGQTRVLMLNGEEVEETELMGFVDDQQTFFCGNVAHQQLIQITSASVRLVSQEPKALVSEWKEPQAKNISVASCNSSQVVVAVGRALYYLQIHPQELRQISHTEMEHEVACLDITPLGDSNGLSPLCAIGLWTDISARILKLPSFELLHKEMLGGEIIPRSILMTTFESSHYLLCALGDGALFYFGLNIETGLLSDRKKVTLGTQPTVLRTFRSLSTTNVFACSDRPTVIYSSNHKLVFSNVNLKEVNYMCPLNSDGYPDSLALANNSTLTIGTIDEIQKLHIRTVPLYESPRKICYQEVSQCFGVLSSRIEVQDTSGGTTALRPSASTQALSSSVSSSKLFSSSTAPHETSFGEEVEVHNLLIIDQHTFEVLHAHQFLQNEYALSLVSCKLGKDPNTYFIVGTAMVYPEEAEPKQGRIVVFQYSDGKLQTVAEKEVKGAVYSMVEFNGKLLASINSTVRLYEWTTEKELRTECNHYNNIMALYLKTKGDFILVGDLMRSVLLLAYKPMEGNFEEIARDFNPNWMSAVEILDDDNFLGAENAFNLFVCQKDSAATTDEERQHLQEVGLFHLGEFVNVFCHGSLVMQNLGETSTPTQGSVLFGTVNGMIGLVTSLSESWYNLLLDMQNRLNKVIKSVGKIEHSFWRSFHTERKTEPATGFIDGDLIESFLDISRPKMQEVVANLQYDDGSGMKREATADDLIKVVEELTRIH
T2 sequence (Q13422 whole entry Q146F, the tested form may be a part): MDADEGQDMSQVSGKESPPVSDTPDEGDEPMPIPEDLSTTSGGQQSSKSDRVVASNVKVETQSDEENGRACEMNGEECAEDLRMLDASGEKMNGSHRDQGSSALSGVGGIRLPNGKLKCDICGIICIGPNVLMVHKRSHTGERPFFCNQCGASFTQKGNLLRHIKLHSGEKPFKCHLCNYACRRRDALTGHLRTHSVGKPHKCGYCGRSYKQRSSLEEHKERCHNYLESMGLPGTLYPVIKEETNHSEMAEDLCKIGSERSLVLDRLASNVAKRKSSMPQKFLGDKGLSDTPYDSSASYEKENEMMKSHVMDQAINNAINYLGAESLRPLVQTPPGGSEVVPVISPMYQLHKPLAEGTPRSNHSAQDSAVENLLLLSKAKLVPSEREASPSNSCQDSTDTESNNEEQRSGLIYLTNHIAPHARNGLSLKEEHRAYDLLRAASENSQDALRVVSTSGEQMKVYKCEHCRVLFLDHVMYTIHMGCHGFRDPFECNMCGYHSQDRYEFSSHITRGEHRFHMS

In the case of `O=C1CCC(N2Cc3c(cc(F)c(CNCc4ccc(C(F)F)cc4)c3F)C2=O)C(=O)N1` (stereo not drawn) [Compound 79, 3-(5-(((4-(difluoromethyl)benzyl)amino)methyl)-4,6-difluoro-1-oxoisoindolin-2-yl)piperidine-2,6-dione], the DC50 at Helios was not below 10000 nM. Moreover, in test [1], the DC50 was determined as 162 nM and the Dmax was found to be 60%.

For `O=C1CCC(N2Cc3c(cc(F)c(C4CCN(Cc5ccc6scnc6c5)CC4)c3F)C2=O)C(=O)N1` (stereo not drawn) [Compound 54, 3-(5-(1-(benzo[d]thiazol-5-ylmethyl)piperidin-4-yl)-4,6-difluoro-1-oxoisoindolin-2-yl)piperidine-2,6-dione], at Helios, the DC50 is not below 10000 nM. For the same compound, in test [1], the DC50 stood at 0.114 nM and the Dmax worked out at 93.3%.

As to `CN(C)CCCOc1ccc(CN2CCC(c3c(F)cc4c(c3F)CN(C3CCC(=O)NC3=O)C4=O)CC2)cc1` (stereo not drawn) [Compound 108, 3-(5-(1-(4-(3-(dimethylamino)propoxy)benzyl)piperidin-4-yl)-4,6-difluoro-1-oxoisoindolin-2-yl)piperidine-2,6-dione], the DC50 on Helios was not below 10000 nM; in test [1] it was 3.66 nM. Besides, the Dmax in test [1] turned out to be 83.1%.

Turning to `O=C1CCC(N2Cc3c(cc(F)c(C4CCN(Cc5nc(C(F)(F)F)cs5)CC4)c3F)C2=O)C(=O)N1` (stereo not drawn) [Compound 105, 3-(4,6-difluoro-1-oxo-5-(1-((4-(trifluoromethyl)thiazol-2-yl)methyl)piperidin-4-yl)isoindolin-2-yl)piperidine-2,6-dione], the DC50 at Helios was not below 10000 nM. Also, in test [1], the DC50 came out at 83.5 nM and the Dmax was found to be 75.3%.

With `O=C1CCC(N2Cc3c(cc(F)c(C4CCN(Cc5nc(-c6ccccc6)no5)CC4)c3F)C2=O)C(=O)N1` (stereo not drawn) [Compound 99, 3-(4,6-difluoro-1-oxo-5-(1-((3-phenyl-1,2,4-oxadiazol-5-yl)methyl)piperidin-4-yl)isoindolin-2-yl)piperidine-2,6-dione], the DC50 on Helios was not below 10000 nM; in test [1] it was 369 nM. Besides, the Dmax in test [1] came to 58.6%.

On to `O=C1CCC(N2Cc3c(cc(F)c(C4(O)CCN(Cc5ccc6cn[nH]c6c5)CC4)c3F)C2=O)C(=O)N1` (stereo not drawn) [Compound 42, 3-[4,6-difluoro-5-[4-hydroxy-1-(1H-indazol-6-ylmethyl)-4-piperidyl]-1-oxo-isoindolin-2-yl]piperidine-2,6-dione], for which the DC50 on Helios was not below 10000 nM; in test [1] it was 4.39 nM. Moreover, in test [1], the Dmax is 87.7%.

For the compound `Cc1cc(Br)cnc1C(=O)N1CCC(c2c(F)cc3c(c2F)CN(C2CCC(=O)NC2=O)C3=O)CC1` (stereo not drawn) [Compound 66, 3-(5-(1-(5-bromo-3-methylpicolinoyl)piperidin-4-yl)-4,6-difluoro-1-oxoisoindolin-2-yl) piperidine-2,6-dione], the DC50 at Helios is not below 10000 nM. In test [1], the DC50 was found to be 46.1 nM and the Dmax was determined as 74.9%.

Turning to `CCCCN1CCC(c2c(F)cc3c(c2F)CN(C2CCC(=O)NC2=O)C3=O)CC1` (stereo not drawn) [Compound 115, 3-(5-(1-butylpiperidin-4-yl)-4,6-difluoro-1-oxoisoindolin-2-yl)piperidine-2,6-dione], the DC50 on Helios was not below 10000 nM. In test [1], the DC50 is 6.66 nM and the Dmax is 79.7%.

On to `Cc1cc(CN2CCC(c3c(F)cc4c(c3F)CN(C3CCC(=O)NC3=O)C4=O)CC2)on1` (stereo not drawn) [Compound 4, 3-(4,6-difluoro-5-(1-((3-methylisoxazol-5-yl)methyl)piperidin-4-yl)-1-oxoisoindolin-2-yl)piperidine-2,6-dione], for which the DC50 at Helios is not below 10000 nM. Moreover, in test [1], the DC50 was 105 nM and the Dmax is 82.3%.

Consider `O=C1CCC(N2Cc3c(cc(F)c(C4(O)CCN(Cc5ccc6ncsc6c5)CC4)c3F)C2=O)C(=O)N1` (stereo not drawn) [Compound 12], for which the DC50 on Helios was not below 10000 nM. In test [1], the DC50 stood at 4.33 nM and the Dmax was 83.4%.

Take `O=C1CCC(N2Cc3c(cc(F)c(C4CCN(Cc5ccc(C(F)(F)F)cc5O)CC4)c3F)C2=O)C(=O)N1` (stereo not drawn) [Compound 55, 3-(4,6-difluoro-5-(1-(2-hydroxy-4-(trifluoromethyl)benzyl)piperidin-4-yl)-1-oxoisoindolin-2-yl)piperidine-2,6-dione]: the DC50 at Helios is not below 10000 nM. In test [1], the DC50 was 0.468 nM and the Dmax is 88.7%.

Take `O=C1CCC(N2Cc3c(cc(F)c(C4(O)CCN(CC5CCCCC5)CC4)c3F)C2=O)C(=O)N1` (stereo not drawn) [Compound 33, 3-(5-(1-(cyclohexylmethyl)-4-hydroxypiperidin-4-yl)-4,6-difluoro-1-oxoisoindolin-2-yl)piperidine-2,6-dione]: on Helios, the DC50 was not below 10000 nM. Moreover, in test [1], the DC50 was determined as 192 nM and the Dmax was found to be 60.4%.

`O=C1CCC(N2Cc3c(cc(F)c(C4(O)CCN(Cc5ccc(C(F)(F)F)cc5O)CC4)c3F)C2=O)C(=O)N1` (stereo not drawn) [Compound 22, 3-(4,6-difluoro-5-(4-hydroxy-1-(2-hydroxy-4-(trifluoromethyl)benzyl)piperidin-4-yl)-1-oxoisoindolin-2-yl)piperidine-2,6-dione]: the DC50 is not below 10000 nM on Helios and 14.3 nM in test [1]. For the same compound, in test [1], the Dmax is 80%.

With `Cc1cc(Br)cnc1CN1CCC(O)(c2c(F)cc3c(c2F)CN(C2CCC(=O)NC2=O)C3=O)CC1` (stereo not drawn) [Compound 13, 3-(5-(1-((5-bromo-3-methylpyridin-2-yl)methyl)-4-hydroxypiperidin-4-yl)-4,6-difluoro-1-oxoisoindolin-2-yl)piperidine-2,6-dione], the DC50 on Helios was not below 10000 nM. Besides, in test [1], the DC50 turned out to be 86 nM and the Dmax amounted to 62.4%.

As for `O=C1CCC(N2Cc3c(cc(F)c(C4CCN(CCO)CC4)c3F)C2=O)C(=O)N1` (stereo not drawn) [Compound 123, 3-(4,6-difluoro-5-(1-(2-hydroxyethyl)piperidin-4-yl)-1-oxoisoindolin-2-yl)piperidine-2,6-dione], the DC50 at Helios was not below 10000 nM. For the same compound, in test [1], the DC50 was determined as 21.3 nM and the Dmax turned out to be 74.5%.

`O=C1CCC(N2Cc3c(cc(F)c(C4CCN(Cc5ccsc5)CC4)c3F)C2=O)C(=O)N1` (stereo not drawn) [Compound 6, 3-(4,6-difluoro-1-oxo-5-(1-(thiophen-3-ylmethyl)piperidin-4-yl)isoindolin-2-yl)piperidine-2,6-dione]: the DC50 at Helios is not below 10000 nM. Further, in test [1], the DC50 is 5 nM and the Dmax stood at 89.1%.

For `O=C1CCC(N2Cc3c(cc(F)c(C4CCN(Cc5ccc(C(F)F)cc5)CC4)c3F)C2=O)C(=O)N1` (stereo not drawn) [Compound 51, 3-(5-(1-(4-(difluoromethyl)benzyl)piperidin-4-yl)-4,6-difluoro-1-oxoisoindolin-2-yl)piperidine-2,6-dione], the DC50 on Helios is not below 10000 nM. Moreover, in test [1], the DC50 was determined as 0.097 nM and the Dmax came out at 92%.

Turning to `O=C1CC[C@@H](N2Cc3c(cc(F)c(C4CC5CCC(C4)N5Cc4ccc5ncsc5c4)c3F)C2=O)C(=O)N1` (stereo partly drawn) [Compound 127, (3R)-3-(5-(8-(benzo[d]thiazol-6-ylmethyl)-8-azabicyclo[3.2.1]octan-3-yl)-4,6-difluoro-1-oxoisoindolin-2-yl)piperidine-2,6-dione], the DC50 was not below 10000 nM on Helios and 5.94 nM in test [1]. In addition, in test [1], the Dmax amounted to 91.2%.

Take `O=C1CCC(N2Cc3c(cc(F)c(C4(O)CCN(Cc5cccc(-n6cccn6)c5)CC4)c3F)C2=O)C(=O)N1` (stereo not drawn) [Compound 15, 3-(5-(1-(3-(1H-pyrazol-1-yl)benzyl)-4-hydroxypiperidin-4-yl)-4,6-difluoro-1-oxoisoindolin-2-yl)piperidine-2,6-dione]: the DC50 on Helios was not below 10000 nM; in test [1], 4.94 nM. In addition, the Dmax in test [1] was 79.9%.

Take `Cn1cncc1CN1CCC(c2c(F)cc3c(c2F)CN(C2CCC(=O)NC2=O)C3=O)CC1` (stereo not drawn) [Compound 1, 3-(4,6-difluoro-5-(1-((1-methyl-1H-imidazol-5-yl)methyl)piperidin-4-yl)-1-oxoisoindolin-2-yl)piperidine-2,6-dione]: the DC50 on Helios was not below 10000 nM. Further, in test [1], the DC50 is 10.4 nM and the Dmax is 85.3%.

`O=C1CCC(N2Cc3c(cc(F)c(C4CCN(Cc5cnc6ccccc6n5)CC4)c3F)C2=O)C(=O)N1` (stereo not drawn) [Compound 116, 3-(4,6-difluoro-1-oxo-5-(1-(quinoxalin-2-ylmethyl)piperidin-4-yl)isoindolin-2-yl)piperidine-2,6-dione]: the DC50 on Helios is not below 10000 nM; in test [1], 3.19 nM. Moreover, the Dmax in test [1] came to 85.5%.

On to `O=C1CC[C@H](N2Cc3c(cc(F)c(C4CC5CCC(C4)N5Cc4ccc5ncsc5c4)c3F)C2=O)C(=O)N1` (stereo partly drawn) [Compound 126, (3S)-3-(5-(8-(benzo[d]thiazol-6-ylmethyl)-8-azabicyclo[3.2.1]octan-3-yl)-4,6-difluoro-1-oxoisoindolin-2-yl)piperidine-2,6-dione], for which the DC50 at Helios was not below 10000 nM. Also, in test [1], the DC50 came to 0.427 nM and the Dmax was 92.2%.

Take `O=C1CCC(N2Cc3c(cc(F)c(C4(O)CCN(Cc5n[nH]c6ccccc56)CC4)c3F)C2=O)C(=O)N1` (stereo not drawn) [Compound 41, 3-[4,6-difluoro-5-[4-hydroxy-1-(1H-indazol-3-ylmethyl)-4-piperidyl]-1-oxo-isoindolin-2-yl] piperidine-2,6-dione]: the values for the DC50 (at Helios; in test [1]) were not below 10000 nM and 95.3 nM, respectively. Moreover, the Dmax in test [1] came out at 66.2%.
